The results in this text go back to US20230065740A1, “CYCLIN-DEPENDENT KINASE INHIBITORS” (SPV THERAPEUTICS INC., priority 2018, published 2023).

Values joined by “and” are separate entries in the source; they are usually repeats but may differ in a detail not shown here. Identical values can stand only once. Like-named read-outs stand apart in the source and are kept apart here. Some results are limits rather than exact numbers.

For test [1], the target named is T1, CDK2-CYCLINA (Homo sapiens, UniProt P24941).
T1 construct: purchased Millipore
Briefly: Microfluidic LabChip kinase inhibition assay, CDK2-CyclinA. It is filed as biochemical. As to conditions: 50 μM ATP.

The target of test [2] is T2, CDK9-CYCLINT1 (Homo sapiens, UniProt P50750).
T2 construct: purchased Carna
T2 sequence (P50750 whole entry): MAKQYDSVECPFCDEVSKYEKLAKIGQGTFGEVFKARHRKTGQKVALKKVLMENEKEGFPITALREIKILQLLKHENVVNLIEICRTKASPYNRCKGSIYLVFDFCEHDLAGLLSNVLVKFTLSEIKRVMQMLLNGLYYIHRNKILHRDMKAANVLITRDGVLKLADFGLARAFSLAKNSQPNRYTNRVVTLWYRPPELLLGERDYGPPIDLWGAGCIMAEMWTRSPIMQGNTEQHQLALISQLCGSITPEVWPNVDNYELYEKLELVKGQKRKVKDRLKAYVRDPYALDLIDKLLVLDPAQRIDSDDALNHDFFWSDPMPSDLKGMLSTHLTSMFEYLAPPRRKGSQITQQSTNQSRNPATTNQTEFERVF
T2 sequence (O60563 whole entry partner): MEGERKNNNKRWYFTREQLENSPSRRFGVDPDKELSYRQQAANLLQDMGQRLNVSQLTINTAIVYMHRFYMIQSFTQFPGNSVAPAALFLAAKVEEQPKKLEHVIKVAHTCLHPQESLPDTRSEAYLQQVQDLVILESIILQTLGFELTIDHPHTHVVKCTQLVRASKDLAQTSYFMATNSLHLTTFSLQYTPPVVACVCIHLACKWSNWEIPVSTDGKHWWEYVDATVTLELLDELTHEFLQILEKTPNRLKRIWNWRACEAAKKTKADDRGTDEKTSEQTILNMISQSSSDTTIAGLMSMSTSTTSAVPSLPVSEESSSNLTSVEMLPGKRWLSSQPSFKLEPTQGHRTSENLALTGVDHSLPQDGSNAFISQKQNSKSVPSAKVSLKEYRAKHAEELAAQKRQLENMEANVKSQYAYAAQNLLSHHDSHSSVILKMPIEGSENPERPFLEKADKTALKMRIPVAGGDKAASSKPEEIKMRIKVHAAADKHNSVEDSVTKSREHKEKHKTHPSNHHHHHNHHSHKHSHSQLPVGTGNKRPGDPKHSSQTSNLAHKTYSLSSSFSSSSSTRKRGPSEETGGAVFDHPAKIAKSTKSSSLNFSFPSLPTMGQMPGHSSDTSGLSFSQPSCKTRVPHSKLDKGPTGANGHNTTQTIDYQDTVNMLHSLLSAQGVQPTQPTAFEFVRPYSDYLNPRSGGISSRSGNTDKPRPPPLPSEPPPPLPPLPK
In words: Microfluidic LabChip kinase inhibition assay, CDK9-CyclinT1. It is filed as biochemical.

Test [3] addresses CDK1/B (Homo sapiens, UniProt P06493). Briefly: Additional inhibition assay, CDK1/B. It is filed as biochemical.
For test [4], the target named is CDK7 CyclinH (Homo sapiens, UniProt P50613). Briefly: Additional inhibition assay, CDK7 CyclinH. It is filed as biochemical.
Sequence of CDK7 CyclinH (P50613 whole entry): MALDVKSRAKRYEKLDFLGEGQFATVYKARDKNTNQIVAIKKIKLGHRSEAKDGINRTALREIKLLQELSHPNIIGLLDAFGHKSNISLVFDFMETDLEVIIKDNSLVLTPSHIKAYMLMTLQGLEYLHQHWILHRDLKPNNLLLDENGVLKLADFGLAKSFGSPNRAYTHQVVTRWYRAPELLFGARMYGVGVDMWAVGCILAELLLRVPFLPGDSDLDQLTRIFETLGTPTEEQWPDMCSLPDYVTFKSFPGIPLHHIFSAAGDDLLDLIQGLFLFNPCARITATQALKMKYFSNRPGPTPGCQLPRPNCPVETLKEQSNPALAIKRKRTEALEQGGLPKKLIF
Sequence of CDK7 CyclinH (P51946 whole entry partner): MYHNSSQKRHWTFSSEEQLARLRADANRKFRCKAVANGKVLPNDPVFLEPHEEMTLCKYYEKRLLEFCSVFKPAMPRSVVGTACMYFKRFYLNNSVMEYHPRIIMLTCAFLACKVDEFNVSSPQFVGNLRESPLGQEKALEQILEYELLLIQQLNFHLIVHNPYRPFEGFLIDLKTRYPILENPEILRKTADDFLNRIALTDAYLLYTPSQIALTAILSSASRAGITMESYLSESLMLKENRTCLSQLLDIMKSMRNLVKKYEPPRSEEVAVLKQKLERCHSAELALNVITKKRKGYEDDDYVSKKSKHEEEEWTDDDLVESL
Sequence of CDK7 CyclinH (P51948 whole entry partner): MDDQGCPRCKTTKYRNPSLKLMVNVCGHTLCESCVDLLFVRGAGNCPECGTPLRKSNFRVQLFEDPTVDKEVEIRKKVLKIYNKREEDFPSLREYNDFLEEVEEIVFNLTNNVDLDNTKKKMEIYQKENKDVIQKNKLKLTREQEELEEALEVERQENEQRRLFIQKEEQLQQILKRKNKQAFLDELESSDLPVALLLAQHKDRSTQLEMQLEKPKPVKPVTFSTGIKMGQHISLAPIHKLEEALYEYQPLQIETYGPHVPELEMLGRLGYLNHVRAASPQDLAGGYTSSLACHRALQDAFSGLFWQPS
Test [5] deals with CDK4-CYCLIND1 (Homo sapiens, UniProt P11802). Briefly: Microfluidic LabChip kinase inhibition assay, CDK4-CyclinD1. The following applies: CDK4 CyclinD1 IC50 (μM), 200 μM ATP, second value in parentheses on the next line.
Sequence of CDK4-CYCLIND1 (P11802 whole entry): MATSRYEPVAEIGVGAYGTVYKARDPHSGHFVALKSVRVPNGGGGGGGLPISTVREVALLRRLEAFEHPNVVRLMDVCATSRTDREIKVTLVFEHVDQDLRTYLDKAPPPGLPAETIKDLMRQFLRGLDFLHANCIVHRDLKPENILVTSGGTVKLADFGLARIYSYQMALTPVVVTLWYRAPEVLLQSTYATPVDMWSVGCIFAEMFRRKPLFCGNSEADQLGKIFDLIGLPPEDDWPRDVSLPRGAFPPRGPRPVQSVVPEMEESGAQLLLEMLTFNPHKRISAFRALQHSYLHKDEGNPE
Sequence of CDK4-CYCLIND1 (P24385 whole entry partner): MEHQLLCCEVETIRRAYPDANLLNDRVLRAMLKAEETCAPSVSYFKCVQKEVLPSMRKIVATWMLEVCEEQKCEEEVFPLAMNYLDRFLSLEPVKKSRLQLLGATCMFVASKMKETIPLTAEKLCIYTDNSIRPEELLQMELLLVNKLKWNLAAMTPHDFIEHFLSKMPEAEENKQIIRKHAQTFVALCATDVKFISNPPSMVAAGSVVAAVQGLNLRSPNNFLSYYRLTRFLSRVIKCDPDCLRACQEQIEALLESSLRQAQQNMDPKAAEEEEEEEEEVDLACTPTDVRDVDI
The target in test [6] is T3, CDK6-CYCLIND3 (Homo sapiens, UniProt Q00534).
T3 construct: purchased Carna
T3 sequence (Q00534 whole entry): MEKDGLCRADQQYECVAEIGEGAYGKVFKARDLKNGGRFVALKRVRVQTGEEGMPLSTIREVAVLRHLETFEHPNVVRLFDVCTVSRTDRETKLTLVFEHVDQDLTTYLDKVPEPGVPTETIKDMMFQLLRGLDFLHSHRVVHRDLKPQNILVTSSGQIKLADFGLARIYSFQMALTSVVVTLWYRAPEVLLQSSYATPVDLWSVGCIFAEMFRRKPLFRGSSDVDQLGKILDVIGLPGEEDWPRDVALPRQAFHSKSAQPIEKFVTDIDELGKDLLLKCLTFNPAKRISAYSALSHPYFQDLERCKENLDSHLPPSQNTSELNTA
T3 sequence (P30281 whole entry partner): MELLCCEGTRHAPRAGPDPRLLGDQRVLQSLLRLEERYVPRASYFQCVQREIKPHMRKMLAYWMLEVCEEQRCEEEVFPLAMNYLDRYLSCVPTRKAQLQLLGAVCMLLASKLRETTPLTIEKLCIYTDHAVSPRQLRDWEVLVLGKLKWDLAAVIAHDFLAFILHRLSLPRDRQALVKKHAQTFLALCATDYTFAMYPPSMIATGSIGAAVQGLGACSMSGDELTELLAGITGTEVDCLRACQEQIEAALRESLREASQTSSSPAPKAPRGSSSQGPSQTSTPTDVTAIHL
In words: Microfluidic LabChip kinase inhibition assay, CDK6-CyclinD3. The class given is biochemical. The following applies: 300 μM ATP.

[7] abbreviates: Table 3a, 10 μM ATP, read-out: CDK9 CyclinT1 IC50.

Sequence of CDK1/B (P06493 whole entry): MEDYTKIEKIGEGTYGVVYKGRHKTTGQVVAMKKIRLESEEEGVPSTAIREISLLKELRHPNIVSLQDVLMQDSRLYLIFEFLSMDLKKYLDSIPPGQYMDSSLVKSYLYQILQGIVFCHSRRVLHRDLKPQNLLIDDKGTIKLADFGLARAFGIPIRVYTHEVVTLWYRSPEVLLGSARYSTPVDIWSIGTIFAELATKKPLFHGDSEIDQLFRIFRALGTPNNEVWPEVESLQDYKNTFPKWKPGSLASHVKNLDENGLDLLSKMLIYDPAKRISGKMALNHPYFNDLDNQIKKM
Sequence of CDK1/B (P14635 whole entry partner): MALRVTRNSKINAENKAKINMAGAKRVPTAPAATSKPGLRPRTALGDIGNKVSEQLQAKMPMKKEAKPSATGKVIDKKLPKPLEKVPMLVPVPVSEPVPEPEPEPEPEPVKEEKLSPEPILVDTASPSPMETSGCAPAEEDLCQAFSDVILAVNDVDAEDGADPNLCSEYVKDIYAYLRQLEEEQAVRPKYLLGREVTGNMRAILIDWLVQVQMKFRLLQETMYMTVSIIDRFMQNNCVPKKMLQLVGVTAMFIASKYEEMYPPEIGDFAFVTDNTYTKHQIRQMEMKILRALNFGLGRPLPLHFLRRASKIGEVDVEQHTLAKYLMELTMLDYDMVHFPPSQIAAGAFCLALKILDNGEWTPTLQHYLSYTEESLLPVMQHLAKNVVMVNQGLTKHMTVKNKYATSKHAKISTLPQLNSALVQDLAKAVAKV

The term IC50 denotes the point on the concentration scale where inhibition reaches its midpoint. Take `CN1CCN(c2ccc(Nc3ncc4c(n3)N(C3CCCC3)C3(CC(=O)NC3=O)C4)cc2)CC1` (single isomer, unassigned) [Compound C136, 7′-cyclopentyl-2′-((4-(4-methylpiperazin-1-yl)phenyl)amino)-5′,7′-dihydrospiro[pyrrolidine-3,6′-pyrrolo[2,3-d]pyrimidine]-2,5-dione]: the IC50 in test [1] (Table 3a) came out at 1.54 µM; in test [1] (Table 3b), 1.54 µM; in test [2], 0.0805 µM; in test [3] (Table 3a) it was 1.27 µM; in test [3] (Table 3b), 1.27 µM; in test [4] (Table 3a), 5.74 µM. Besides, the IC50 in test [4] (Table 3b) was 5.74 µM; in test [5] (Table 3a), 0.0257 µM; in test [5] (Table 3b), 0.0257 µM.

For the compound `CN1CCN(c2ccc(Nc3ncc4c(n3)N(C3CCCC3)C3(CC(=O)NC3=O)C4)cc2)CC1` (single isomer, unassigned) [Compound C137, 7′-cyclopentyl-2′-((4-(4-methylpiperazin-1-yl)phenyl)amino)-5′,7′-dihydrospiro[pyrrolidine-3,6′-pyrrolo[2,3-d]pyrimidine]-2,5-dione], the IC50 worked out at 3.33 µM in test [1] (Table 3a); 3.33 µM in test [1] (Table 3b); 0.367 µM in test [2] (setting [7]); 1.65 µM in test [3] (Table 3a); 1.65 µM in test [3] (Table 3b); 0.585 µM in test [4] (Table 3a). Further, the IC50 in test [4] (Table 3b) came out at 0.585 µM; in test [5] (Table 3a), 0.202 µM; in test [5] (Table 3b), 0.202 µM.

As for `CN1CCN(c2ccc(Nc3ncc4c(n3)N(C3CCCC3)C3(CCNC3=O)C4)cc2F)CC1` (single isomer, unassigned) [Compound C197, 7′-cyclopentyl-2′-((3-fluoro-4-(4-methylpiperazin-1-yl)phenyl)amino)-5′,7′-dihydrospiro[pyrrolidine-3,6′-pyrrolo[2,3-d]pyrimidin]-2-one], the IC50 was 0.258 µM in test [6] (CDK6 CyclinD3 IC50 (μM), Table 3a); 0.258 µM in test [6] (CDK6 CyclinD3 IC50 (μM), Table 3b); 2.1 µM in test [1] (Table 3a); 2.1 µM in test [1] (Table 3b); 0.0466 µM in test [2]; 22.1 µM in test [4] (Table 3a). Besides, the IC50 in test [4] (Table 3b) was 22.1 µM; in test [5] (Table 3a) it was 0.0517 µM and 0.028 µM; in test [5] (Table 3b) it was 0.0517 µM and 0.028 µM.

On to `CN(C)CCOc1ccc(Nc2ncc3c(n2)N(C2CCCC2)C2(CCNC2=O)C3)cc1` (centres unmarked) [Compound C108, 7′-cyclopentyl-2′-((4-(2-(dimethylamino)ethoxy)phenyl)amino)-5′,7′-dihydrospiro[pyrrolidine-3,6′-pyrrolo[2,3-d]pyrimidin]-2-one], for which the IC50 was over 10 µM in test [1] (Table 3a); over 10 µM in test [1] (Table 3b); 0.021 µM in test [2] (setting [7]); 6.35 µM in test [3] (Table 3a); 6.35 µM in test [3] (Table 3b); over 10 µM in test [4] (Table 3a). Besides, the figures for the IC50 in test [4] (Table 3b), in test [5] (Table 3a) and in test [5] (Table 3b) were over 10 µM, 0.124 µM and 0.124 µM, respectively.

As to `CN1CCN(c2ccc(Nc3ncc4c(n3)N(C3CCCC3)C3(CCNC3=O)C4)cc2)CC1` (centres unmarked) [Compound C115, 7′-cyclopentyl-2′-((4-(4-methylpiperazin-1-yl)phenyl)amino)-5′,7′-dihydrospiro[pyrrolidine-3,6′-pyrrolo[2,3-d]pyrimidin]-2-one], the IC50 was over 10 µM in test [1] (Table 3a); over 10 µM in test [1] (Table 3b); 0.149 µM in test [2] (setting [7]); 9.11 µM in test [3] (Table 3a); 9.11 µM in test [3] (Table 3b); over 10 µM in test [4] (Table 3a). Moreover, the IC50 in test [4] (Table 3b) is over 10 µM; in test [5] (Table 3a) it was 0.116 µM; in test [5] (Table 3b), 0.116 µM.

`CC(C)N1CCN(c2ccc(Nc3ncc4c(n3)N(C3CCCC3)C3(CCNC3=O)C4)cc2F)CC1` (centres unmarked) [Compound C118, 7′-cyclopentyl-2′-((3-fluoro-4-(4-isopropylpiperazin-1-yl)phenyl)amino)-5′,7′-dihydrospiro[pyrrolidine-3,6′-pyrrolo[2,3-d]pyrimidin]-2-one]: the IC50 in test [1] (Table 3a) is 4.9 µM; in test [1] (Table 3b), 4.9 µM; in test [2] (setting [7]), 0.016 µM; in test [3] (Table 3a) it was 3.82 µM; in test [3] (Table 3b), 3.82 µM; in test [4] (Table 3a), over 10 µM. The results for the IC50 in test [4] (Table 3b), in test [5] (Table 3a) and in test [5] (Table 3b) were over 10 µM, 0.0264 µM and 0.0264 µM, respectively.

Regarding `Cc1cc(Nc2ncc3c(n2)N(C2CCCC2)C2(CCNC2=O)C3)ccc1N1CCN(C(C)C)CC1` (centres unmarked) [Compound C121, 7′-cyclopentyl-2′-((4-(4-isopropylpiperazin-1-yl)-3-methylphenyl)amino)-5′,7′-dihydrospiro[pyrrolidine-3,6′-pyrrolo[2,3-d]pyrimidin]-2-one], the IC50 in test [1] (Table 3a) is over 10 µM; in test [1] (Table 3b), over 10 µM; in test [2] (setting [7]) it was 0.132 µM; in test [3] (Table 3a), over 10 µM; in test [3] (Table 3b), over 10 µM; in test [4] (Table 3a) it was over 10 µM. Further, the IC50 was over 10 µM in test [4] (Table 3b), 0.374 µM in test [5] (Table 3a) and 0.374 µM in test [5] (Table 3b).

Consider `COc1cc(Nc2ncc3c(n2)N(C2CCCC2)C2(CCNC2=O)C3)ccc1N1CCN(C)CC1` (centres unmarked) [Compound C123, 7′-cyclopentyl-2′-((3-methoxy-4-(4-methylpiperazin-1-yl)phenyl)amino)-5′,7′-dihydrospiro[pyrrolidine-3,6′-pyrrolo[2,3-d]pyrimidin]-2-one], for which the IC50 was over 10 µM in test [1] (Table 3a); over 10 µM in test [1] (Table 3b); 0.292 µM in test [2] (setting [7]); over 10 µM in test [3] (Table 3a); over 10 µM in test [3] (Table 3b); over 10 µM in test [4] (Table 3a). The IC50 is over 10 µM in test [4] (Table 3b), 0.955 µM in test [5] (Table 3a) and 0.955 µM in test [5] (Table 3b).

Take `CN1CCN(c2ccc(Nc3ncc4c(n3)N(C3CCCC3)C3(CCNC3=O)C4)cn2)CC1` (centres unmarked) [Compound C129, 7′-cyclopentyl-2′-((6-(4-methylpiperazin-1-yl)pyridin-3-yl)amino)-5′,7′-dihydrospiro[pyrrolidine-3,6′-pyrrolo[2,3-d]pyrimidin]-2-one]: the IC50 in test [1] (Table 3a) was over 10 µM; in test [1] (Table 3b) it was over 10 µM; in test [2] (setting [7]), 0.0628 µM; in test [3] (Table 3a), 8.52 µM; in test [3] (Table 3b), 8.52 µM; in test [4] (Table 3a), over 10 µM. The IC50 is over 10 µM in test [4] (Table 3b), 0.103 µM in test [5] (Table 3a) and 0.103 µM in test [5] (Table 3b).

Take `O=C1NCCC12Cc1cnc(Nc3ccc(N4CCC(N5CCOCC5)CC4)cc3)nc1N2C1CCCC1` (centres unmarked) [Compound C131, 7′-cyclopentyl-2′-((4-(4-morpholinopiperidin-1-yl)phenyl)amino)-5′,7′-dihydrospiro[pyrrolidine-3,6′-pyrrolo[2,3-d]pyrimidin]-2-one]: the IC50 in test [1] (Table 3a) was over 10 µM; in test [1] (Table 3b), over 10 µM; in test [2] (setting [7]), 0.298 µM; in test [3] (Table 3a), over 10 µM; in test [3] (Table 3b), over 10 µM; in test [4] (Table 3a), over 10 µM. In addition, the IC50 in test [4] (Table 3b) was over 10 µM; in test [5] (Table 3a), 0.273 µM; in test [5] (Table 3b), 0.273 µM.

Consider `O=C1NCCC12Cc1cnc(Nc3ccc(N4CCC(N5CCOCC5)CC4)c(F)c3)nc1N2C1CCCC1` (centres unmarked) [Compound C132, 7′-cyclopentyl-2′-((3-fluoro-4-(4-morpholinopiperidin-1-yl)phenyl)amino)-5′,7′-dihydrospiro[pyrrolidine-3,6′-pyrrolo[2,3-d]pyrimidin]-2-one], for which the IC50 in test [1] (Table 3a) is 9.66 µM; in test [1] (Table 3b), 9.66 µM; in test [2] (setting [7]), 0.0402 µM; in test [3] (Table 3a) it was 6.93 µM; in test [3] (Table 3b), 6.93 µM; in test [4] (Table 3a) it was over 10 µM. For the same compound, the IC50 in test [4] (Table 3b) is over 10 µM; in test [5] (Table 3a), 0.0561 µM; in test [5] (Table 3b), 0.0561 µM.

On to `CC(C)N1CCN(c2ccc(Nc3ncc4c(n3)N(C3CCCC3)C3(CC(=O)NC3=O)C4)cc2)CC1` (centres unmarked) [Compound C134, 7′-cyclopentyl-2′-((4-(4-isopropylpiperazin-1-yl)phenyl)amino)-5′,7′-dihydrospiro[pyrrolidine-3,6′-pyrrolo[2,3-d]pyrimidine]-2,5-dione], for which the IC50 was determined as 2.28 µM in test [1] (Table 3a); 2.28 µM in test [1] (Table 3b); 1.78 µM in test [3] (Table 3a); 1.78 µM in test [3] (Table 3b); 8.1 µM in test [4] (Table 3a); 8.1 µM in test [4] (Table 3b).

For the compound `CN1CCN(c2ccc(Nc3ncc4c(n3)N(C3CCCC3)C3(CC(=O)NC3=O)C4)cc2F)CC1` (centres unmarked) [Compound C198, 7′-cyclopentyl-2′-((3-fluoro-4-(4-methylpiperazin-1-yl)phenyl)amino)-5′,7′-dihydrospiro[pyrrolidine-3,6′-pyrrolo[2,3-d]pyrimidine]-2,5-dione], the IC50 in test [1] (Table 3a) was 0.247 µM; in test [1] (Table 3b) it was 0.247 µM; in test [4] (Table 3a) it was 0.168 µM; in test [4] (Table 3b), 0.168 µM.

On to `CN1CCN(c2ccc(Nc3ncc4c(n3)N(C3CCCCC3)C3(CCNC3=O)C4)nc2)CC1` (centres unmarked) [Compound C202, 7′-cyclohexyl-2′-((5-(4-methylpiperazin-1-yl)pyridin-2-yl)amino)-5′,7′-dihydrospiro[pyrrolidine-3,6′-pyrrolo[2,3-d]pyrimidin]-2-one], for which the IC50 in test [6] (Table 3a, read-out: CDK6 CyclinD3 IC50) was 0.704 µM; in test [6] (Table 3b, read-out: CDK6 CyclinD3 IC50), 0.704 µM; in test [5] (Table 3a) it was 0.368 µM; in test [5] (Table 3b), 0.368 µM.
